Values quoted from earlier work in patent US6610702B2, “Ammonium salts of inositol hexaphosphate, and uses thereof” (GMP Oxycell, Inc., priority 2000, dated 2003).
Like-named read-outs stand apart in the source and are kept apart here.

Columns and labels:
[1] = buffer 100 mM sodium phosphate, pH 7.0; cited from earlier work
stripped hemoglobin = stripped hemoglobin (Homo sapiens, UniProt P68871); settings: pH 7.4, cited from earlier work
human RBCs = settings: IHP encapsulated in human RBCs by continuous-flow electroporation; cited from earlier work
[2] = target: allosteric site on hemoglobin (Homo sapiens, UniProt P68871); settings: displaces hemoglobin-bound 2,3-DPG; cited from earlier work
allosteric site on hemoglobin, sequence (P68871 2-147 limits assumed): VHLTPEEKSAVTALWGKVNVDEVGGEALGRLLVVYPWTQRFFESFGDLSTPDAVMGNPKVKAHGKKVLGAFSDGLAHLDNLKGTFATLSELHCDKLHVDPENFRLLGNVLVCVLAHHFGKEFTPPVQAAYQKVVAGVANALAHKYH
allosteric site on hemoglobin, sequence (P69905 2-142 partner limits assumed): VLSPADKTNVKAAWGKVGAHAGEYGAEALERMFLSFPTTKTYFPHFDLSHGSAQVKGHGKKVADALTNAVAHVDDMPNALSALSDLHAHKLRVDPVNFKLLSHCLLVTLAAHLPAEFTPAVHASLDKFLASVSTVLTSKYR

stripped hemoglobin, sequence (P68871 2-147 limits assumed): as the sequence (P68871 2-147 limits assumed) above
stripped hemoglobin, sequence (P69905 2-142 partner limits assumed): as the sequence (P69905 2-142 partner limits assumed) above

SMILES | Octanol/buffer partition coefficient [1] | half-saturation pressure P(O2) (½) of stripped hemoglobin (stripped hemoglobin; 25 C., stripped hemoglobin alone 4.3) [mm Hg] | half-saturation pressure P(O2) (½) of stripped hemoglobin (stripped hemoglobin; 37 C., stripped hemoglobin alone 9.3) [mm Hg] | P50 of modified RBCs (human RBCs) | affinity for the allosteric site relative to 2,3-DPG [2]
Cc1cn([C@H]2CC(O)[C@@H](CO)O2)c(=O)[nH]c1=O (some centres unmarked) | 0.064 | – | – | – | –
O=P(O)(O)O[C@H]1[C@H](OP(=O)(O)O)[C@@H](OP(=O)(O)O)[C@H](OP(=O)(O)O)[C@@H](OP(=O)(O)O)[C@H]1OP(=O)(O)O [IHP, inositol hexaphosphate] | – | 48.4 | 96.4 | approximately 50 torr | one-thousand times greater affinity
